Key:
Assay in all cases: relative viability (nuclei count vs DMSO), 5 days (fraction); higher = more cells survive
Tivantinib + OSI-027 = compound: O=C1NC(=O)[C@@H](c2cn3c4c(cccc24)CCC3)[C@@H]1c1c[nH]c2ccccc12 [Tivantinib] + COc1cccc2cc(-c3nc([C@H]4CC[C@H](C(=O)O)CC4)n4ncnc(N)c34)[nH]c12 [OSI-027] (partner 0.5 µM)
Procedure, shortened: (§1)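 Relative viability divides the nuclei count in treated wells by that in vehicle wells. Lung cancer cell lines were seeded in 1536-well plates, dosed by pin tool the next day, and fixed and stained after 5 days in one step with final 0.05% Triton X-100, 1% formaldehyde and 1 ug/ml Hoechst. Dosing was a single drug or a fixed anchor-drug dose plus five library-drug doses (not always all listed) in √10 steps, and values are medians of duplicate plates imaged at 4×.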

Crenolanib + OSI-027 = compound: CC1(COc2ccc3c(c2)ncn3-c2ccc3cccc(N4CCC(N)CC4)c3n2)COC1 [Crenolanib] + COc1cccc2cc(-c3nc([C@H]4CC[C@H](C(=O)O)CC4)n4ncnc(N)c34)[nH]c12 [OSI-027] (partner 0.5 µM)
Procedure, shortened: as §1

Crenolanib + Crizotinib = compound: CC1(COc2ccc3c(c2)ncn3-c2ccc3cccc(N4CCC(N)CC4)c3n2)COC1 [Crenolanib] + C[C@@H](Oc1cc(-c2cnn(C3CCNCC3)c2)cnc1N)c1c(Cl)ccc(F)c1Cl [Crizotinib] (partner 1 µM)
Procedure, shortened: as §1

Crenolanib + Decitabine = compound: CC1(COc2ccc3c(c2)ncn3-c2ccc3cccc(N4CCC(N)CC4)c3n2)COC1 [Crenolanib] + Nc1ncn([C@H]2C[C@H](O)[C@@H](CO)O2)c(=O)n1 [Decitabine] (partner 2 µM)
Procedure, shortened: as §1

| Cell Line | relative viability (Tivantinib + OSI-027; first compound 0.01 µM) | relative viability (Tivantinib + OSI-027; first compound 0.03162 µM) | relative viability (Tivantinib + OSI-027; first compound 0.1 µM) | relative viability (Tivantinib + OSI-027; first compound 0.3162 µM) | relative viability (Crenolanib + OSI-027; first compound 0.01 µM) | relative viability (Crenolanib + OSI-027; first compound 0.03162 µM) | relative viability (Crenolanib + OSI-027; first compound 0.1 µM) | relative viability (Crenolanib + OSI-027; first compound 0.3162 µM) | relative viability (Crenolanib + OSI-027; first compound 1 µM) | relative viability (Crenolanib + Crizotinib; first compound 0.01 µM) | relative viability (Crenolanib + Crizotinib; first compound 0.03162 µM) | relative viability (Crenolanib + Crizotinib; first compound 0.1 µM) | relative viability (Crenolanib + Crizotinib; first compound 0.3162 µM) | relative viability (Crenolanib + Crizotinib; first compound 1 µM) | relative viability (Crenolanib + Decitabine; first compound 0.01 µM) | relative viability (Crenolanib + Decitabine; first compound 0.03162 µM) | relative viability (Crenolanib + Decitabine; first compound 0.1 µM) | relative viability (Crenolanib + Decitabine; first compound 0.3162 µM) | relative viability (Crenolanib + Decitabine; first compound 1 µM) |
| --- | --- | --- | --- | --- | --- | --- | --- | --- | --- | --- | --- | --- | --- | --- | --- | --- | --- | --- | --- |
| NCI-H1650 | 0.681 | 0.535 | 0.634 | 0.532 | 0.666 | 0.696 | 0.691 | 0.667 | 0.46 | 1.08 | 0.917 | 0.916 | 1.1 | 0.696 | 0.373 | 0.377 | 0.455 | 0.322 | 0.343 |
| ABC-1 | 0.586 | 0.422 | 0.538 | 0.603 | 0.526 | 0.536 | 0.522 | 0.531 | 0.45 | 1.01 | 0.883 | 1.13 | 1.01 | 1.19 | 1.42 | 1.22 | 0.978 | 1.17 | 1.15 |
| LCLC-97TM1 | 0.44 | 0.473 | 0.428 | 0.36 | 0.601 | 0.51 | 0.469 | 0.667 | 0.374 | 0.42 | 0.355 | 0.479 | 0.324 | 0.457 | 0.203 | 0.221 | 0.193 | 0.226 | 0.208 |
| NCI-H460 | 0.608 | 0.573 | 0.619 | 0.864 | 0.825 | 0.685 | 0.682 | 0.752 | 0.598 | 0.935 | 0.924 | 0.904 | 1.19 | 0.831 | 0.261 | 0.475 | 0.442 | 0.682 | 0.555 |
| H3255 | 0.711 | 0.551 | 0.571 | – | 0.586 | 0.544 | 0.514 | 0.573 | 0.588 | 1.07 | 0.806 | 0.889 | 0.85 | 0.825 | 0.674 | 0.629 | 0.588 | 0.587 | 0.652 |

Source: the supplement of paper PMC10307832
